In US11311610B2, “Immune-modulating agents and uses therefor” (UNIVERSITY OF TECHNOLOGY SYDNEY, priority 2010, dated 2022):
Where a SMILES comes first, the peptide text is derived from it.

Key:
[1] = system: RAW macrophages; experiment: ATP induced macrophage cell death (LDH release); type: cell-based, murine; conditions: 20 μg/mL pre-treatment 1 h, then ATP 5 mM 2 h
Experimental: FIG. 16 is a graphical representation showing that FhHDM-1 P3 prevents ATP induced cell death in RAW macrophages. RAW macrophages were pretreated with either FhHDM-1 (20 μg/mL) or FhHDM-1 p3 (20 μg/mL) for 1 h, then washed and cultured in the presence of ATP (5 mM) for 2 h. Cell death (% cytotoxicity) was quantified according to the amount of LDH released by the cells into culture media.
Raw macrophages were pre-treated with either HDM (20 μg/mL) or FhHDM-1 P3 (20 μg/mL) for 1 h, washed and then cultured in the presence of ATP (5 mM) for 2 h. The culture supernatants were collected and assayed for LDH activity with an LDH release kit. The amount of LDH release by cells treated with ATP only was used to represent 100% cytotoxicity.

[2] = system: ATPase activity associated with lysosomal membranes (equivalent to vATPase activity); experiment: ATPase activity of enriched lysosomal membranes; type: biochemical, murine; conditions: lysosomal membranes from RAW264.7 macrophage lysates
Experimental: FIG. 17 is a graphical representation showing that FhHDM-1 P3 inhibits ATPase activity associated with lysosomal membranes in a concentration-dependent manner. A cellular fraction enriched for lysosomes was prepared by sequential centrifugation of RAW264.7 macrophage lysates. The lysosomal membranes were recovered and assayed (with or without HDM peptides) for ATPase activity using a commercially available kit.
FIG. 18 is a diagrammatic representation showing a sequence alignment of various synthetic HDM peptides. The amphipathic helix is shaded in grey as are the mutated residues in peptides nonHP and 2Pro. NonHP is a variant of FhHDM-1 P3 in which the hydrophobic face of the FhHDM-1 amphipathic helix was removed. 2Pro is a variant of FhHDM-1 P3 in which two prolines substitutions were incorporated to disrupt the alpha-helix. Cons_p3 is a consensus peptide corresponding to various FhHDM-1 homologs. All peptides in the alignment were tested for their ability to inhibit the ATPase activity associated with enriched lysosomal membranes (prepared from RAW macrophages). Those with inhibitory activity are shown in bold text.
A cellular fraction enriched for lysosomes was prepared by sequential centrifugation of RAW264.7 macrophage lysates. The lysosome pellet was extracted with water and the resulting lysosomal membranes were recovered and assayed (with or without HDM peptides) for ATPase activity using a commercially available kit.

[3] = system: interaction of LPS with LPS-binding protein (LBP); experiment: Assay for the interaction of LPS with LBP (ELISA); set-up: species or system mouse; conditions: 5 μg/well, 1 h before 10% sera; ELISA with anti-LBP
Experimental: (§1) FIG. 9 is a graphical representation showing LPS neutralization by FhHDM-1. The ability of FhHDM-1 (Δ), FhHDM-1 p1 (●) or FhHDM-1 p3 (▪) to bind to LPS was investigated by (A) incubating a range of concentrations of proteins (0.02-2 μg/well) in an LPS-coated (100 ng/well) microtitre plate. Bound peptides were detected by ELISA using rabbit anti-FhHDM-1 as a primary antibody. (B) FhHDM-1 or derived peptides (0.1 μg) were incubated in the presence of LPS (0.05-5 μg/well) and bound peptides measured as described above. Binding of peptides to the LPS-immobilized plates was expressed as a percentage of that measured for 2 μg (for panel A) or 0.1 μg (for panel B) of FhHDM-1. Data are the means±SD from three separate experiments. (C) FhHDM-1 and FhHDM-1 p3 but not FhHDM-1 p1 reduced the interaction between LPS and LBP as effectively as LL-37. LPS-coated microtitre plates were incubated with 5 μg/well of LL-37, FhHDM-1 or derived peptides for 1 h prior to the addition of 10% human sera in PBS. Interaction of LBP with LPS was measured by ELISA using an anti-LBP primary antibody and expressed as a percentage of that detected for 10% sera in the absence of added peptides. Data are the mean±SD of three separate experiments. Statistical significance was calculated using the student t-test and represent a comparison to the binding of 10% sera to immobilized LPS. (D) Binding of FITC-conjugated LPS to RAW264.7 cells was inhibited by LL-37, FhHDM-1 and peptides. […] The binding of FITC-LPS was analyzed by flow cytometry. LPS binding was expressed as a percentage of the mean fluorescence obtained for the addition of FITC-LPS to cells in the absence of peptides. […] Two hours later, sera was collected and serum levels of TNF and (F) IL-10 measured by ELISA. (G) Peritoneal macrophages were isolated, cultured unstimulated in media overnight and then levels of TNF and (H) IL-10 in the culture measured by ELISA. […]
The ability of FhHDM-1 and derived peptides to block the interaction of LPS with LPB was assessed by ELISA using an anti-LBP primary antibody. […]

[4] = system: LPS-induced inflammatory response; experiment: Endotoxin (LPS)-induced inflammation in mice, co-injection; type: in vivo, BALB/c mice
Experimental: FIG. 9 is a graphical representation showing LPS neutralization by FhHDM-1. The ability of FhHDM-1 (Δ), FhHDM-1 p1 (●) or FhHDM-1 p3 (▪) to bind to LPS was investigated by (A) incubating a range of concentrations of proteins (0.02-2 μg/well) in an LPS-coated (100 ng/well) microtitre plate. Bound peptides were detected by ELISA using rabbit anti-FhHDM-1 as a primary antibody. (B) FhHDM-1 or derived peptides (0.1 μg) were incubated in the presence of LPS (0.05-5 μg/well) and bound peptides measured as described above. Binding of peptides to the LPS-immobilized plates was expressed as a percentage of that measured for 2 μg (for panel A) or 0.1 μg (for panel B) of FhHDM-1. Data are the means±SD from three separate experiments. (C) FhHDM-1 and FhHDM-1 p3 but not FhHDM-1 p1 reduced the interaction between LPS and LBP as effectively as LL-37. LPS-coated microtitre plates were incubated with 5 μg/well of LL-37, FhHDM-1 or derived peptides for 1 h prior to the addition of 10% human sera in PBS. Interaction of LBP with LPS was measured by ELISA using an anti-LBP primary antibody and expressed as a percentage of that detected for 10% sera in the absence of added peptides. Data are the mean±SD of three separate experiments. Statistical significance was calculated using the student t-test and represent a comparison to the binding of 10% sera to immobilized LPS. (D) Binding of FITC-conjugated LPS to RAW264.7 cells was inhibited by LL-37, FhHDM-1 and peptides. RAW264.7 cells (5×10^5 cells/mL) were incubated with 1 μg/mL of FITC-conjugated LPS in the presence of increasing concentrations (0.1-10 μg/mL) of FhHDM-1, FhHDM-1 p1 and FhHDM-1 p3 and LL-37 in RPMI 1640 containing 10% FBS for 20 min at 4° C. The binding of FITC-LPS was analyzed by flow cytometry. LPS binding was expressed as a percentage of the mean fluorescence obtained for the addition of FITC-LPS to cells in the absence of peptides. Data are the mean±SD of two independent experiments. (E) FhHDM-1 and FhHDM-1 p3 both suppress the inflammatory response induced by LPS in mice. BALB/c mice were intra-peritoneally injected with 1 μg of LPS alone or combined with 1 μg of FhHDM-1, FhHDM-1 p3 or LL-37. Two hours later, sera was collected and serum levels of TNF and (F) IL-10 measured by ELISA. (G) Peritoneal macrophages were isolated, cultured unstimulated in media overnight and then levels of TNF and (H) IL-10 in the culture measured by ELISA. Data are the mean±SD of six mice in each group. Statistical significance represents a comparison to the levels of cytokines secreted by mice given LPS only.
Human Defense peptides protect against harmful inflammatory responses by preventing activation of macrophages by classical TLR ligands such as LPS (Scott et al. 2002, J. Immunol. 169, 3883-3891). Here, the inventors employed a murine model to examine whether FhHDM-1 and derived peptides can suppress LPS-induced Th1 inflammation. BALB/c mice were injected intra-peritoneally with 1 μg of LPS alone or LPS combined with 1 μg of FhHDM-1, FhHDM-1 p3 or LL-37. Two hours later, sera was collected and serum levels of the pro-inflammatory mediators TNF and IL-10 were measured by ELISA. […] Because macrophages are the main source of pro-inflammatory mediators in this murine model of inflammation, peritoneal macrophages were isolated from treated mice (LPS±FhHDM-1, peptides or LL-37 as described above), cultured unstimulated in media overnight and then levels of TNF and IL-10 in the culture media were measured by ELISA.
Six week-old female BALB/c mice were purchased from ARC (Perth, Australia) and maintained according to the guidelines of the University of Technology Sydney Animal Care and Ethics committee. For the analysis for endotoxin-induced inflammation, mice were intra-peritoneally injected with 1 μg of E. coli LPS (serotype 111:B4; Sigma) either with or without 1 μg FhHDM-1 or derived peptides. After 2 h mice were sacrificed by cervical dislocation. […]

[5] = system: RAW264.7 cells; experiment: Binding of FITC-conjugated LPS to RAW 264.7 cells (flow cytometry); type: cell-based, murine; conditions: 0.1-10 μg/mL, 20 min at 4° C.
Experimental: as §1
The effect of FhHDM-1 and derived peptides on the binding of FITC-LPS to CD14+ cells was determined by flow cytometry of the murine macrophage cell line RAW264.7. […]

[6] = established T1D, early randomized trials; cited from earlier work
[7] = BALB/c mice, 1 μg LPS mixed with 1 μg i.p., 2 h
[8] = macrophages from treated mice, cultured unstimulated overnight

Compound: CC[C@H](C)[C@H](NC(=O)[C@H](CCCCN)NC(=O)[C@H](CCC(=O)O)NC(=O)CNC(=O)[C@H](CC(C)C)NC(=O)[C@H](CC(N)=O)NC(=O)[C@H](CC(=O)O)NC(=O)[C@H](CCCCN)NC(=O)[C@H](C)NC(=O)[C@H](CC(C)C)NC(=O)[C@H](Cc1ccc(O)cc1)NC(=O)[C@H](C)NC(=O)[C@H](CCSC)NC(=O)[C@H](C)N)C(=O)N[C@H](C(=O)N[C@@H](CCC(=O)O)C(=O)N[C@H](C(=O)N[C@H](C(=O)N[C@H](C(=O)N[C@H](C(=O)N[C@@H](CC(C)C)C(=O)N[C@@H](CC(C)C)C(=O)N[C@@H](CC(N)=O)C(=O)N[C@@H](CCCNC(=N)N)C(=O)N[C@@H](CC(C)C)C(=O)N[C@H](C(=O)N[C@@H](CC(=O)O)C(=O)N[C@@H](CCCNC(=N)N)C(=O)N[C@@H](CC(C)C)C(=O)N[C@@H](CCC(=O)O)C(=O)N[C@@H](CCCCN)C(=O)N[C@@H](Cc1ccc(O)cc1)C(=O)N[C@@H](C)C(=O)NCC(=O)O)[C@@H](C)O)[C@@H](C)CC)[C@@H](C)O)[C@@H](C)CC)C(C)C)[C@@H](C)O [FhHDM-1 p3] (H-AMAYLAKDNLGEKITEVITILLNRLTDRLEKYAG-OH)
- LDH release induced by ATP (cytotoxicity of ATP) [1]: inhibited LDH release

Compound: HDMp2: SEQ ID NO:122, 27 aa, comprising a shorter amphipathic helix than FhHDM-1 peptide 3 (NLGEKITEVITILLNRLTDRLEKYAGN; FhHDM-1 peptide 2)
- ATPase activity associated with lysosomal membranes [2]: inhibitory

Compound: LL-37 [reference compound]
- interaction between LPS and LBP [3]: significantly reduced
- serum levels of IL-10 [4, 7]: significant reduction
- serum levels of TNF [4, 7]: significant reduction
- LPS-induced secretion of IL-10 from peritoneal macrophages [4, 8]: significantly inhibited
- TNF secreted from peritoneal macrophages [4, 8]: did not significantly reduce
- binding of FITC-LPS to RAW264.7 macrophages [5]: most strongly inhibited

Compound: Cn1cnc([N+](=O)[O-])c1Sc1ncnc2nc[nH]c12 [azathioprine]
- treated patients becoming independent of insulin therapy [6]: approximately 50%
